Results on six compounds are retold here after patent EP0221719A2, “Novel cephalosporin derivatives, processes for their preparation and pharmaceutical compositions containing them” (BIOGAL GYOGYSZERGYAR, priority 1985, dated 1987).

One assay has as its system Pseudomonas aeruginosa. The experiment in a line: microbe, parasite or virus in culture. The following applies: 24 h.
Another assay deals with Escherichia coli 6R. Description: MIC determination (antibacterial activity in vitro). In kind it is cell-based. The following applies: 24 h.
Assay [1] concerns Clostridium perfringens Cp. The experiment in a line: microbe, parasite or virus in culture. The following applies: 24 h. In kind it is cell-based.
The subject of assay [2] is Streptococcus haemolyticus A118. The experiment in a line: MIC determination (antibacterial activity in vitro). In kind it is cell-based. The following applies: after 24 hours.
The subject of assay [3] is Streptococcus haemolyticus Pneumo. Described as above. Format: cell-based. The following applies: after 24 hours.
The next assay relates to Salmonella typhi murium. The description is as above. In kind it is cell-based. The following applies: Salmonella enterica, 24 h.
Another assay deals with Escherichia coli R-15. The description is as above. Format: cell-based. The following applies: R15, after 24 hours.
The test system of assay [4] is Salmonella typhi murium and Proteus vulgaris. The experiment in a line: In vivo effectivity in artificially infected mice (protection test). As to conditions: for living animal / group 1st day / living animal / group 3rd day: groups of 5 infected mice; for ED50: sc.
The test system of assay [5] is Staphylococcus aureus Smith. Description: MIC determination (antibacterial activity in vitro). Format: cell-based. The following applies: after 24 hours.
Assay [6] relates to Pseudomonas pyocyanea NTCT 10.490. The assay is described as above. Format: cell-based. As to conditions: Pseudomonas aeruginosa, NTCT10.490, after 24 hours. The method, then: The MIC values expressed in mcg./mi. of SZMFO 110 after 24 hours are contained in Table 1.
Another assay deals with Shigella sonnei. The assay is described as above. In kind it is cell-based. The following applies: after 24 hours.
Assay [7] relates to Staphylococcus epidermidis A CC I-12228. The assay is described as above. In kind it is cell-based. As to conditions: ACCI12228, after 24 hours.
Assay [8] deals with Bacillus subtilis ATCC 6633. The description is as above. As to conditions: ATCC6633, after 24 hours. Format: cell-based.
In assay [9] the test system is Escherichia coli poliresistens. The description is as above. As to conditions: 24 h. Format: cell-based.
Another assay concerns Escherichia coli R-222. The assay is described as above. Format: cell-based. As to conditions: R222, 24 h.
The next assay concerns Staphylococcus aureus 53. Described as above. The following applies: after 24 hours. Format: cell-based.
The subject of assay [10] is Streptococcus haemolyticus Robb. The assay is described as above. As to conditions: after 24 hours. In kind it is cell-based.
The subject of another assay is Escherichia coli K12. The description is as above. In kind it is cell-based. As to conditions: after 24 hours.
For assay [11], the system named is Klebsiella sp. ATCC 10031. Described as above. As to conditions: ATCC10031, after 24 hours. Format: cell-based.
Assay [12] deals with Staphylococcus aureus 1110. The assay is described as above. Format: cell-based. As to conditions: after 24 hours.
A further assay deals with Proteus vulgaris XL. The assay is described as above. Format: cell-based. As to conditions: after 24 hours.

≈ marks a conversion by molar mass, not a printed value. Where a name gives a salt, the structure may show the parent alone. Read-outs that look alike come from different tables or passages of the source.

A word on the ED50: it is the midpoint of the dose-response relation.

Consider `CO/N=C(\C(=O)N[C@@H]1C(=O)N2C(C(=O)O)=C(COC(C)=O)CS[C@H]12)c1csc(N)n1` [Cefotaxime, 7-[2-(2-amino-4-thiazolyl)-2-methoxy-iminoacetamido]-cephalosporanic acid], for which the MIC in the assay with Pseudomonas aeruginosa came to 32 µg/mL (≈ 70.3 µM).
As to `CC(C)(ON=C(C(=O)NC1C(=O)N2C(C(=O)[O-])=C(C[n+]3ccccc3)CSC12)c1csc(N)n1)C(=O)O` [Ceftazimide, 1-//(6R,7R)-7-/2-(2-amino-4-thiazolyl)glyoxylamido/--2-carboxy-8-oxo-5-thia-1-azabicyclo/4.2.0/oct-2-ene--3-yl/methyl/pyridinium hydroxide inner salt 7^2-(Z)-/0-(1-carboxy-1-methylethyl)oxime/], the MIC in the assay on Pseudomonas aeruginosa came to 4 µg/mL.
Regarding `CO/N=C(\C(=O)N[C@@H]1C(=O)N2C(C(=O)O)=CCS[C@H]12)c1csc(N)n1` [Ceftizoxime, (6R,7R)-7-/2-(2-amino-4-thiazolyl)glyoxylamido/-8--oxo-5-thia-l-azabicyclo/4.2.0/oct-2-ene-2-carboxylic acid 7^2-(Z)-(0-methyloxime)], in the assay with Pseudomonas aeruginosa, the MIC was 64 µg/mL (≈ 167 µM).
`CO/N=C(\C(=O)N[C@@H]1C(=O)N2C(C(=O)O)=C(CSc3nnnn3C)CS[C@H]12)c1csc(N)n1` [Cefmenoxime, (6R,7R)-7-/2-(2-amino-4-thiazolyl)glyoxylamido/-3-//(1-methyl-1H-tetrazol-5-yl)thio/methyl/-8-oxo-5-thia--1-azabicyclo/4.2.0/oct-2-ene-2-carboxylic acid 7^2-(Z)-(O-methyloxime)] registered an MIC against Pseudomonas aeruginosa of 64 µg/mL (≈ 125 µM).
On to `CON=C(C(=O)NC1C(=O)N2C(C(=O)O)=C(CSc3nnc(S)s3)CSC12)c1csc(N)n1` (stereo not drawn) [SZMFO 110, 7β-[2-(2-aminothiazol-4-yl)-(Z)-2-methoxyimino-acetamido]-3-[(2-mercapto-1.3.4-thiadiazol-5-yl)thiomethyl]-ceph-3-em-4-carboxylic acid], for which the MIC was 0.25 µg/mL (≈ 0.458 µM) against Escherichia coli 6R; 4 ng/mL (≈ 0.00733 µM) in assay [1]; 0.03 µg/mL (≈ 0.055 µM) in assay [2]; 0.03 µg/mL (≈ 0.055 µM) in [3]; 0.06 µg/mL (≈ 0.11 µM) in the assay on Salmonella typhi murium; 0.16 µg/mL (≈ 0.293 µM) in the assay with Escherichia coli R-15. Further, the MIC in assay [5] turned out to be 1.25 µg/mL (≈ 2.29 µM); in assay [6] it was 0.31 µg/mL (≈ 0.568 µM); in the assay on Shigella sonnei it was 0.06 µg/mL (≈ 0.11 µM); in assay [7], 0.6 µg/mL (≈ 1.1 µM); in assay [8] it was 0.08 µg/mL (≈ 0.147 µM); in assay [9] it was 0.16 µg/mL (≈ 0.293 µM). Further, the MIC in the assay on Escherichia coli R-222 is 0.03 µg/mL (≈ 0.055 µM); against Staphylococcus aureus 53, 1.6 µg/mL (≈ 2.93 µM); in assay [10], 0.03 µg/mL (≈ 0.055 µM); with Escherichia coli K12, 0.03 µg/mL (≈ 0.055 µM); in [11], 7 ng/mL (≈ 0.0128 µM); in assay [12], 6.2 µg/mL (≈ 11.4 µM). For the same compound, the MIC came out at 0.31 µg/mL (≈ 0.568 µM) against Pseudomonas aeruginosa and 7 ng/mL (≈ 0.0128 µM) against Proteus vulgaris XL. The “living animal / group 1st day” value in assay [4] (0.2 mg./kg. subcutaneously) stood at 0; in assay [4] (1 mg./kg. subcutaneously), 4; in assay [4] (5 mg./kg. subcutaneously), 5; in assay [4] (25 mg./kg. subcutaneously), 5; in assay [4] (100 mg./kg. subcutaneously), 5. Further, the “living animal / group 3rd day” value in [4] (0.2 mg./kg. subcutaneously) amounted to 0; in [4] (1 mg./kg. subcutaneously), 4; in assay [4] (5 mg./kg. subcutaneously), 4; in assay [4] (25 mg./kg. subcutaneously), 5; in [4] (100 mg./kg. subcutaneously) it was 4. The ED50 in assay [4] (24 h, read-out: ED50 1st day) came to 0.62 mg/kg; in assay [4] (72 h, read-out: ED50 3rd day) it was 0.62 mg/kg.
With `CCN1CCN(C(=O)N[C@@H](C(=O)N[C@@H]2C(=O)N3C(C(=O)O)=C(CSc4nnnn4C)CS[C@H]23)c2ccc(O)cc2)C(=O)C1=O` [Cefoperazone, 7-[D-(-)-α-(4-ethyl-2,3-dioxo-1-piperazinecarboxamido)-α-(4-hydroxyphenyl)-acetamido]-3-[[(1-methyl-1H-tetranol-5-yl)thio]methyl]-ceph-3-em-4-carboxylic acid, reference compound], the “living animal / group 1st day” value in assay [4] (0.2 mg./kg. subcutaneously) came to 1; in [4] (1 mg./kg. subcutaneously), 4; in assay [4] (5 mg./kg. subcutaneously), 5; in assay [4] (25 mg./kg. subcutaneously), 4; in assay [4] (100 mg./kg. subcutaneously) it was 5. In addition, the “living animal / group 3rd day” value is 1 in [4] (0.2 mg./kg. subcutaneously); 1 in assay [4] (1 mg./kg. subcutaneously); 3 in [4] (5 mg./kg. subcutaneously); 4 in [4] (25 mg./kg. subcutaneously); 4 in assay [4] (100 mg./kg. subcutaneously). The median effective dose (ED50) in [4] (24 h, read-out: ED50 1st day) was found to be 0.44 mg/kg; in assay [4] (72 h, read-out: ED50 3rd day), 3.7 mg/kg. Moreover, the MIC in the assay on Pseudomonas aeruginosa was 8 µg/mL (≈ 12.4 µM).
